PMC7252214 (The Plant journal : for cell and molecular biology, 2019)

Molecular target: T1, ApKSL2 (Andrographis paniculata, UniProt A0A3G1S3U0)
T1 sequence (A0A3G1S3U0 41-814): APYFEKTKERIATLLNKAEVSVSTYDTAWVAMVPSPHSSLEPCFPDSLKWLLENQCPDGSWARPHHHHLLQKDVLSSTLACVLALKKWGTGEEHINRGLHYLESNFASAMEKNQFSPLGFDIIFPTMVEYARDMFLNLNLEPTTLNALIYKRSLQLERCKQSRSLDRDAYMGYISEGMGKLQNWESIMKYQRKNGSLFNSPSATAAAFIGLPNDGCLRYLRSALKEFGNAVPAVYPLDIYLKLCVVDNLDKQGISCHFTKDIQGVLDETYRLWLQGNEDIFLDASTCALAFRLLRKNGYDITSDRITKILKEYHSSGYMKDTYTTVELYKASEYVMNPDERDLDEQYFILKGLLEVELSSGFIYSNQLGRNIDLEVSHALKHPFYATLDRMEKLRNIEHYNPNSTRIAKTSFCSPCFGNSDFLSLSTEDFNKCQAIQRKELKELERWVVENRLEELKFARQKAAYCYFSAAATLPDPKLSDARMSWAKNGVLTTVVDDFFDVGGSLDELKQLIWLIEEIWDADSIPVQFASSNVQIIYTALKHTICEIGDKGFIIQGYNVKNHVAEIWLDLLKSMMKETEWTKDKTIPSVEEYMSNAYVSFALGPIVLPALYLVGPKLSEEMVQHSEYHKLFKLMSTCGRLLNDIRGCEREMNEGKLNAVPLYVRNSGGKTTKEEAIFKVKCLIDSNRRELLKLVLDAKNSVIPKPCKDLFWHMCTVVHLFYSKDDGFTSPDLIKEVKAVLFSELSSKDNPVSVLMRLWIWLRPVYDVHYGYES
Assay: co-expression in E. coli, GC-MS of products
Type: cell-based
Conditions: E. coli engineered to produce ent-CPP; product ent-kaurene

Question: For C=C1CC[C@@H]2C(C)(C)CCC[C@@]2(C)[C@@H]1CC/C(C)=C/COP(=O)(O)OP(=O)(O)O [ent-CPP], which “co-expression in E. coli, GC-MS of products” value is on record?
Answer: Its value is “ApKSL2 acted on both ent-CPP, producing ent-kaurene”.
